The values that follow come from patent EP3970494A1 (priority 2020, dated 2022).

What all share (experiment): microbe, parasite or virus in culture
Holding throughout (assay type): cell-based

One assay concerns Septoria tritici. Particulars: Zymoseptoria tritici, 168 h.
A further assay has as its system Phytophthora infestans. As to conditions: 168 h, read-out: Fungal growth at 31 ppm (%) PHYTIN.
In another assay the test system is Fusarium culmorum. As to conditions: 168 h.

Regarding `CO/N=C(/C(=O)OC)c1cccc(C)c1CO/N=C(\C)c1cc(C(F)(F)F)nc(C)n1` [Example 57], the activity at 31 ppm in the assay on Septoria tritici turned out to be 14%; with Phytophthora infestans, 2%; in the assay on Fusarium culmorum it was 12%.
In the same order, the values of `CO/N=C(\C)c1ccnc(/C(C)=N/OCc2c(C)cccc2/C(=N\OC)C(=O)OC)c1` [Example 29, Methyl (2E)-2-methoxyimino-2-[2-[[(E)-1-[4-[(E)-N-methoxy-C-methyl-carbonimidoyl]-2-pyridyl]ethylideneamino]oxymethyl]-3-methyl-phenyl]acetate] are 0%, 1% and 12%.
Consider `CNC(=O)/C(=N/OC)c1cccc(C)c1CO/N=C(/c1cc(C(F)(F)F)ccn1)C1CC1` [Example 70, (2E)-2-[2-[[(E)-[cyclopropyl-[4-(trifluoromethyl)-2-pyridyl]methylene]amino]oxymethyl]-3-methyl-phenyl]-2-methoxyimino-N-methyl-acetamide], for which the values for the activity at 31 ppm with Septoria tritici, in the assay on Phytophthora infestans and in the assay on Fusarium culmorum were 0%, 0% and 12%, respectively.
Turning to `CNC(=O)/C(=N/OC)c1cccc(C)c1CO/N=C(\C)c1ncsc1C(F)(F)F` [Example 41], the figures for the activity at 31 ppm with Septoria tritici, in the assay with Phytophthora infestans and in the assay with Fusarium culmorum were 2%, 0% and 9%, respectively.
Turning to `CO/N=C(/C(=O)OC)c1cccc(C)c1CO/N=C(\C)c1cncc(C(F)(F)F)c1` [Example 84, methyl (2E)-2-methoxyimino-2-[3-methyl-2-[[(E)-1-[5-(trifluoromethyl)-3-pyridyl]ethylideneamino]oxymethyl]phenyl]acetate], the activity at 31 ppm amounted to 1% in the assay with Septoria tritici, 0% in the assay on Phytophthora infestans and 12% with Fusarium culmorum.
Turning to `CO/N=C(/C(=O)OC)c1cccc(C)c1CO/N=C(\C)c1cnc(C(F)(F)F)cn1` [Example 96, Methyl (2E)-2-methoxyimino-2-[3-methyl-2-[[(E)-1-[5-(trifluoromethyl)pyrazin-2-yl]ethylideneamino]oxymethyl]phenyl]acetate], the activity at 31 ppm with Septoria tritici came to 18%; with Phytophthora infestans, 0%; in the assay on Fusarium culmorum, 13%.
Taken in the same sequence, the figures for `CNC(=O)/C(=N/OC)c1cccc(C)c1CO/N=C(\C)c1ncnc(Cl)c1F` [Example 108] were 0%, 0% and 8%.
Taken in the same sequence, the figures for `CO/N=C(/C(=O)OC)c1cccc(C)c1CO/N=C(\C)c1cnc(Cl)c(Cl)c1` [Example 87] were 1%, 0% and 17%.
In the same order, the values of `CO/N=C(/C(=O)OC)c1cccc(C)c1CO/N=C(/c1cc(C(F)(F)F)ccn1)C1CC1` [Example 72, Methyl (2E)-2-[2-[[(E)-[cyclopropyl-[4-(trifluoromethyl)-2-pyridyl]methylene]amino]-oxymethyl]-3-methyl-phenyl]-2-methoxyimino-acetate] are 4%, 6% and 14%.
Regarding `CNC(=O)/C(=N/OC)c1cccc(C)c1CO/N=C(\C)c1cnc(Cl)c(Cl)c1` [Example 88], the activity at 31 ppm in the assay with Septoria tritici was 9%; in the assay on Phytophthora infestans, 0%; with Fusarium culmorum, 14%.
